“Also recorded” adds a separate entry of the source. Structures can show the parent of a compound that is named as a salt.
Assays:
[1] = Antimuscarinic screen in rat bladder perfusion model (plasma, urine and tissue drug levels); conditions: for total recovery: theoretical dose 3.3 mg/day
Description: The drugs were perfused at varying rates, concentrations, and times. Serial blood and urine samples were taken, and tissues (bladder, ureter, kidney, and prostate) were sampled to determine drug levels and distribution. Tissue histological exams were completed for safety.

[2] = oral therapeutic doses for 5 days; cited from earlier work
urothelium = experiment: Intravesical pharmacology screen in rat bladder perfusion model with acetic acid; conditions: for acetic acid induced increased intravesical pressure / inter-contraction intervals compared to the control: 0.05-100 μg/mL intravesical, 0.5% acetic acid; for acetic acid induced increased intravesical pressure: FIGS. 7A-7C; for inter-contraction intervals compared to the control: FIGS. 7D-7F
Experimental: Intercontraction intervals and intravesical pressure were measured during a control periods and treatment periods.
The rats' bladder catheters were connected to a pressure transducer and syringe-pump to allow perfusion. The bladders were perfused (50 μL/minute) with saline for one hour to obtain stable micturition cycles. The perfusion then was switched to a weak acidic solution sufficient to stimulate the noxious receptors in the urothelium without inducing structural or metabolic damage to the tissue. […] A 45 minute baseline was recorded.
The vehicle or antimuscarinic drugs were administered intravesically at escalating concentrations (see Table 2 for drugs and concentrations used) with acetic acid instillation (50 μL/minute). Each dose was administered for a 30-minute period. The intravesical pressure and intercontraction interval was recorded during the last 30 minutes of the control period (baseline) and during the 30 minutes of each treatment period, with one treatment period corresponding to one dose of drug.

[3] = system: carbachol 30 μM (M1, M2, M3, AChRa2 agonist); conditions: low dose protocol 0.1 and 0.5 μg/mL, intravesical; cited from earlier work
normal bladder activity = conditions: human urine after oral dosing infused into rat bladders; cited from earlier work

O=C(O[C@H]1C[C@H]2CC[C@@H](C1)[N+]21CCCC1)C(O)(c1ccccc1)c1ccccc1 [Trospium, trospium chloride]
urine concentration ([1]; 24-48 hours after exposure): about 150 μg/mL
urine concentration ([1]; 48-72 hours after exposure): > 125 µg/mL
Cmax ([1]; rat, in vivo): 0.06 to 0.7 ng/mL
Effective Urine Concentration ([1]; rat, intravesical perfusion): 1 to 10 µg/mL
Urine to Plasma Ratio ([1]; rat, intravesical perfusion): 15,380
total recovery [1]: near the theoretical dose
active compound excreted in the human's urine [2]: 60-80%
acetic acid induced increased intravesical pressure (urothelium): dose dependent reductions
inter-contraction intervals compared to the control (urothelium; listed as trospium): increase intercontraction interval; also recorded: increased the inter-contraction intervals compared to the control
inter-contraction intervals compared to the control (urothelium; listed as trospium chloride): kept the inter-contraction intervals closer to the baseline measurement
urinary retention or significant systemic exposure (urothelium; at intravesical concentration normalizing urothelial sensory function): did not produce urinary retention or significant systemic exposure
concentration range showing activity (urothelium; intravesical): 0.05 to 100 µg/mL
intercontraction interval ratio to baseline [3]: performed similarly
effect on bladder capacity and intercontraction interval (normal bladder activity): more positive effect

Cc1ccc(O)c([C@H](CCN(C(C)C)C(C)C)c2ccccc2)c1 [Toterodine, tolterodine tartrate]
Effective Urine Concentration ([1]; rat, intravesical perfusion): 1 to 10 µg/mL
acetic acid induced increased intravesical pressure (urothelium): dose dependent reductions
inter-contraction intervals compared to the control (urothelium; listed as tolterodine): neither of which altered intercontraction interval
inter-contraction intervals compared to the control (urothelium; listed as tolterodine tartrate): little effect

dimethindene maleate
intercontraction interval ratio to baseline [3]: performed similarly

CCN(CC)CC#CCOC(=O)C(O)(c1ccccc1)C1CCCCC1 (stereo not drawn) [Oxybutynin, oxybutynin chloride]
systemic absorption following intravesical administration ([1]; compared among the three drugs): significantly higher systemic absorption
estimated intravesical absorption ([1]; rat, in vivo): 83 % of the intravesical dose
Effective Urine Concentration ([1]; rat, intravesical perfusion): 1 to 10 µg/mL
total recovery [1]: low total recovery
acetic acid induced increased intravesical pressure (urothelium): dose dependent reductions
inter-contraction intervals compared to the control (urothelium): neither of which altered intercontraction interval
inter-contraction intervals compared to the control (urothelium; listed as oxybutynin hydrochloride): little effect
intercontraction interval ratio to baseline [3]: performed similarly
